Assays:
ROCK-II = ROCK-II (Homo sapiens, UniProt O75116); assay: ROCK-II biochemical assay; details: ROCK-II IC50, as given in text
[1] = tested on: myosin light chain bisphosphorylation (ppMLC); assay: cell-based myosin light chain bisphosphorylation; details: read-out: ppMLC cell-based IC50
Akt3 = Akt3 (Homo sapiens, UniProt Q9Y243); assay: Ambit kinase screen, single-point, Akt3; assay type: binding; details: read-out: percentage inhibition Akt3
Clk1 = Clk1 (Homo sapiens, UniProt P49759); assay: Ambit kinase screen, single-point, Clk1; assay type: binding; details: read-out: percentage inhibition Clk1
Clk2 = Clk2 (Homo sapiens, UniProt P49760); assay: Ambit kinase screen, single-point, Clk2; assay type: binding; details: read-out: percentage inhibition Clk2
Clk4 = Clk4 (Homo sapiens, UniProt Q9HAZ1); assay: Ambit kinase screen, single-point, Clk4; assay type: binding; details: read-out: percentage inhibition Clk4
Lats2 = target: T1, Lats2 (Homo sapiens, UniProt Q9NRM7); assay: Ambit kinase screen, single-point, Lats2; assay type: binding; details: read-out: percentage inhibition Lats2
T1 sequence (Q9NRM7 1-1088): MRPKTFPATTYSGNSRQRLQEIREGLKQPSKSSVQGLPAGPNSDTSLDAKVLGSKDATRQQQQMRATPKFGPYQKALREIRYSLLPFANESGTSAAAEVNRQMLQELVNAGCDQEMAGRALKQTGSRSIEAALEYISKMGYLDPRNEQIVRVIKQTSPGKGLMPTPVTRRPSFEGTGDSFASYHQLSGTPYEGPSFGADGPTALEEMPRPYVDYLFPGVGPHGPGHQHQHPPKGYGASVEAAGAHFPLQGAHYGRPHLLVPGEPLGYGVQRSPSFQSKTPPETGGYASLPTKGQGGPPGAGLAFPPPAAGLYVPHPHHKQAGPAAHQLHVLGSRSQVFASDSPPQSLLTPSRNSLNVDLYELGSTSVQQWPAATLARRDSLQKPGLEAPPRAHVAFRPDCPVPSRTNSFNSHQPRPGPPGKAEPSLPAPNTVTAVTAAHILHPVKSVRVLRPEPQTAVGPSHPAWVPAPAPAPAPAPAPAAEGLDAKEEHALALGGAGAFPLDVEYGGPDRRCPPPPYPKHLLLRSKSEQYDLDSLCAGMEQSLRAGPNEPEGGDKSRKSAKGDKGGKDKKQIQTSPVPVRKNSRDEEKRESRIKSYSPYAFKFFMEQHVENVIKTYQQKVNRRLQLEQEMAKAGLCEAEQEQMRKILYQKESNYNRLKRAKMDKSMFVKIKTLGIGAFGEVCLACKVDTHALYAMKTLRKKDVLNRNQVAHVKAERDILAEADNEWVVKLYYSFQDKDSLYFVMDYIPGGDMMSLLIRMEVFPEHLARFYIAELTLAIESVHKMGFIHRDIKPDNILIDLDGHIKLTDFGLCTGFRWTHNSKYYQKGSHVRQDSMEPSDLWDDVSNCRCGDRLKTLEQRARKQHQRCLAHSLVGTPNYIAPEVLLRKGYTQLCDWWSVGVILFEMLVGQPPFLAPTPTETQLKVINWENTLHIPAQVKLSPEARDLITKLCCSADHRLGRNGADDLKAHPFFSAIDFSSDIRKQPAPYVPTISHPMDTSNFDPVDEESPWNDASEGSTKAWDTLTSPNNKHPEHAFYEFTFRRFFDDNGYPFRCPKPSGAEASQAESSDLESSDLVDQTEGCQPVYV

353 kinases = assay: profiling versus 353 kinases; assay type: binding; details: 3 µM
adrenergic receptor α1a = target: T2, adrenergic receptor α1a (Homo sapiens, UniProt P35348); assay: nonkinase panel, adrenergic receptor α1a; assay type: binding
T2 sequence (P35348 1-466): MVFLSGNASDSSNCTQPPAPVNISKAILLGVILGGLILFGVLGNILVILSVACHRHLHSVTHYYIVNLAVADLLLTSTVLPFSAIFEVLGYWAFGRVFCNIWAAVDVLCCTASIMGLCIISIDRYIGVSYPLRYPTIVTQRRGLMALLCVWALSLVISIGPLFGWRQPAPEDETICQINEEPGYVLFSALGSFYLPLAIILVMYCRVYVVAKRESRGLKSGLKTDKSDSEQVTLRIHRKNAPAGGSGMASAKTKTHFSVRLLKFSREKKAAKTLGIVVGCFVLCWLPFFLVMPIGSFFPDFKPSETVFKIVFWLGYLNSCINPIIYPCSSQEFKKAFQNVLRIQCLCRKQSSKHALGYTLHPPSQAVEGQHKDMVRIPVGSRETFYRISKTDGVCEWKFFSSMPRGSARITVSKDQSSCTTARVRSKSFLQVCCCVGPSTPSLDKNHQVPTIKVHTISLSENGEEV

adrenergic receptor α1b = target: T3, adrenergic receptor α1b (Homo sapiens, UniProt P35368); assay: nonkinase panel, adrenergic receptor α1b; assay type: binding
T3 sequence (P35368 1-520): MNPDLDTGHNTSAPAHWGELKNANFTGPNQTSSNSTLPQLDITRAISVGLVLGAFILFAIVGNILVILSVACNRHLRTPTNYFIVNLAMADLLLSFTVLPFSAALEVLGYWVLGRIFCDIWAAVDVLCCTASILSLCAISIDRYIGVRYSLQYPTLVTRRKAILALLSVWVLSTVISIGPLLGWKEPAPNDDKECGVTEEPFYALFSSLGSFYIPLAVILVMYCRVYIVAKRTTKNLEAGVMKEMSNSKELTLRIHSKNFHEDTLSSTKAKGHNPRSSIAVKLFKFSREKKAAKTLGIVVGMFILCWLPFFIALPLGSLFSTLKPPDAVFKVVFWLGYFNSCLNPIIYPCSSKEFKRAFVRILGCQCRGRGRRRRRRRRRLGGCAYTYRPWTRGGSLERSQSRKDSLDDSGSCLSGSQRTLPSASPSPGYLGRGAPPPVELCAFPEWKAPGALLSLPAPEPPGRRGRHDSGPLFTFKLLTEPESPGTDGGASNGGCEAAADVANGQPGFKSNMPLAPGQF

adrenergic receptor α2a = target: T4, adrenergic receptor α2a (Homo sapiens, UniProt P08913); assay: nonkinase panel, adrenergic receptor α2a; assay type: binding
T4 sequence (P08913 1-465): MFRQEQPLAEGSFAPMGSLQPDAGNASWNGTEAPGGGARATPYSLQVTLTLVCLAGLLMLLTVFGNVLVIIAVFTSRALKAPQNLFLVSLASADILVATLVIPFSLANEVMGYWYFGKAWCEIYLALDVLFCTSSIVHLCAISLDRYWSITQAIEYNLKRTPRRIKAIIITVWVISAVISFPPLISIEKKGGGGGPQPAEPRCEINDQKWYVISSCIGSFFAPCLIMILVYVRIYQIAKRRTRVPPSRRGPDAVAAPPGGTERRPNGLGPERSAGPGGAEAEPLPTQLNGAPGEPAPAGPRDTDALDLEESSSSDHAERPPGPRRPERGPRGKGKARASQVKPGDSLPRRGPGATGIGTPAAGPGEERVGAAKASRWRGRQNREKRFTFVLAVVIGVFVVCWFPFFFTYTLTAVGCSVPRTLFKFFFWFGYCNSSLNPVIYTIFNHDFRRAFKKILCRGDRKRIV

[2] = tested on: p-MLC in trabecular meshwork tissue; assay: Western blot analysis of p-MLC in TM tissue from perfused porcine eyes; details: 25 µM, perfused at 15 mmHg for 5 h
[3] = tested on: aqueous humor outflow facility from the trabecular meshwork; assay: ex vivo aqueous humor outflow facility in perfused enucleated porcine eyes; details: 25 µM continuous exposure, 2–5 h time points, p < 0.01, porcine eyes ex vivo

Sequence of Clk1 (P49759 whole entry): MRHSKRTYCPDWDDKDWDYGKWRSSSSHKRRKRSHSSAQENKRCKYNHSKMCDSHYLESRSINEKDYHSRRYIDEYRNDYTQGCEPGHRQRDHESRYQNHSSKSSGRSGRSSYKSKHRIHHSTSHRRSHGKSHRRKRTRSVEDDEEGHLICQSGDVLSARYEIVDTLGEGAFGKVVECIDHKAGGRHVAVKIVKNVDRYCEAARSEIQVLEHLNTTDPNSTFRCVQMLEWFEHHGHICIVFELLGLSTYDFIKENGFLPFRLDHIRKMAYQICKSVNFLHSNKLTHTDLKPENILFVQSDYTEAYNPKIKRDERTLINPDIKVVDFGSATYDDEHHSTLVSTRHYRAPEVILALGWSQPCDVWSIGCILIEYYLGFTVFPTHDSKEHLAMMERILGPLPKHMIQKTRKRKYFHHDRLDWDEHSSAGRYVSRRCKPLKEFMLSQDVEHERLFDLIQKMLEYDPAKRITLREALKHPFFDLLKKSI
Sequence of Clk2 (P49760 whole entry): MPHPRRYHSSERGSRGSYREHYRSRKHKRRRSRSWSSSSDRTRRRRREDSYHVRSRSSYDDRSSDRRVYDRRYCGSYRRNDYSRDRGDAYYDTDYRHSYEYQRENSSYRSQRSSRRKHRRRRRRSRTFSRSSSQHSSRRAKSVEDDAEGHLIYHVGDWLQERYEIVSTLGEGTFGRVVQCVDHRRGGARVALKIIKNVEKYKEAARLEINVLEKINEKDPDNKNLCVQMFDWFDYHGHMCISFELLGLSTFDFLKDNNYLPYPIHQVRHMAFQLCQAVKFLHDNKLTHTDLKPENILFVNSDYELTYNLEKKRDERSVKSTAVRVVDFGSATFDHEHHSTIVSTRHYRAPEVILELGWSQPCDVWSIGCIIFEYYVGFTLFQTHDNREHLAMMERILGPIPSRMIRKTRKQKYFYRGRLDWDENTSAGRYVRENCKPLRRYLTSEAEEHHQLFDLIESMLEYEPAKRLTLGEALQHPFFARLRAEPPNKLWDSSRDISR
Sequence of Akt3 (Q9Y243 whole entry): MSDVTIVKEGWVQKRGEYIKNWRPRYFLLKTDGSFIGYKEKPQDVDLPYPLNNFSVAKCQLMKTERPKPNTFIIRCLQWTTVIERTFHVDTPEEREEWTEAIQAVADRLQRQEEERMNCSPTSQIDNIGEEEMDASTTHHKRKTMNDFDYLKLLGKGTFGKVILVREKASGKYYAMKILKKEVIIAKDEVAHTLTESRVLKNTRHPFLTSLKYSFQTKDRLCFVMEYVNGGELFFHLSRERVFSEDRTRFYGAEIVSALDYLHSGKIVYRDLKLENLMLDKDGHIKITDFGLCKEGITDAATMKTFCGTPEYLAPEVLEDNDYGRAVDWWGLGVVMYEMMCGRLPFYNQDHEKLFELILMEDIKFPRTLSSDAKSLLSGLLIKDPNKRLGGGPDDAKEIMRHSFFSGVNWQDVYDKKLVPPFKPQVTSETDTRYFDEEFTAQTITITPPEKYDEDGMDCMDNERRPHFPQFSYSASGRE
Sequence of ROCK-II (O75116 whole entry, species assumed): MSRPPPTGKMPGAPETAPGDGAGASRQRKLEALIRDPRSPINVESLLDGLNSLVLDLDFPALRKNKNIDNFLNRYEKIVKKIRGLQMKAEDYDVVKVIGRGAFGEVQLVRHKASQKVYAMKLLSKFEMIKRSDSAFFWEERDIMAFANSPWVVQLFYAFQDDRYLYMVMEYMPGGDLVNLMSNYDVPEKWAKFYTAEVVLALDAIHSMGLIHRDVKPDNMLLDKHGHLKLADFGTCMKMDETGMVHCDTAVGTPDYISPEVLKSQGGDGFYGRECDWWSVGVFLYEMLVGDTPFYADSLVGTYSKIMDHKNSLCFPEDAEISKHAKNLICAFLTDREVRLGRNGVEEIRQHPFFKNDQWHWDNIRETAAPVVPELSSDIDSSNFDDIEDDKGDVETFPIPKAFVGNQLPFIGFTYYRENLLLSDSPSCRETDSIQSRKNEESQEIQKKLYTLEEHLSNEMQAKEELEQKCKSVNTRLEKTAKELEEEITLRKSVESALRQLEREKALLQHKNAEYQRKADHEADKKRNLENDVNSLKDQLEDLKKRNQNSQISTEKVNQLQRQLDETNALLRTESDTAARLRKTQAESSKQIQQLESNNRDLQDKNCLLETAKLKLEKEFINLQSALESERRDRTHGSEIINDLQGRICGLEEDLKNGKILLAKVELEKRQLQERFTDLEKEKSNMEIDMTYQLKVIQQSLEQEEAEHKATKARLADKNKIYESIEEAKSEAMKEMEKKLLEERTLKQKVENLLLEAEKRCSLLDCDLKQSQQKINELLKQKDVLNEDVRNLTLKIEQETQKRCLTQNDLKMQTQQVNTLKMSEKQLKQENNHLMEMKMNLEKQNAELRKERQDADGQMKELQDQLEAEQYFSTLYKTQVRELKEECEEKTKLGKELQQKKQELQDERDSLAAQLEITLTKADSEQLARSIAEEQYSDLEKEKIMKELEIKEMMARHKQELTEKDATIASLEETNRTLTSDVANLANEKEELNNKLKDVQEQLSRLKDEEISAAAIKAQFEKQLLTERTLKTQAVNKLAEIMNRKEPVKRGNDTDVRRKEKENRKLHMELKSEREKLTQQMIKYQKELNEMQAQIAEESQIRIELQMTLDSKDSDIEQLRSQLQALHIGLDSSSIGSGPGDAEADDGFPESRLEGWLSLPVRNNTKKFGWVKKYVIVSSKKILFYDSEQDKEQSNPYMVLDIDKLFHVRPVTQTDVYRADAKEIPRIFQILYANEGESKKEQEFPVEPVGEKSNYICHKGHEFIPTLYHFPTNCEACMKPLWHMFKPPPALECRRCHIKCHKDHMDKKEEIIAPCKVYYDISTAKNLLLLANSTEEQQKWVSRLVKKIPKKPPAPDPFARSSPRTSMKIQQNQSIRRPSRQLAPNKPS
Sequence of Clk4 (Q9HAZ1 whole entry): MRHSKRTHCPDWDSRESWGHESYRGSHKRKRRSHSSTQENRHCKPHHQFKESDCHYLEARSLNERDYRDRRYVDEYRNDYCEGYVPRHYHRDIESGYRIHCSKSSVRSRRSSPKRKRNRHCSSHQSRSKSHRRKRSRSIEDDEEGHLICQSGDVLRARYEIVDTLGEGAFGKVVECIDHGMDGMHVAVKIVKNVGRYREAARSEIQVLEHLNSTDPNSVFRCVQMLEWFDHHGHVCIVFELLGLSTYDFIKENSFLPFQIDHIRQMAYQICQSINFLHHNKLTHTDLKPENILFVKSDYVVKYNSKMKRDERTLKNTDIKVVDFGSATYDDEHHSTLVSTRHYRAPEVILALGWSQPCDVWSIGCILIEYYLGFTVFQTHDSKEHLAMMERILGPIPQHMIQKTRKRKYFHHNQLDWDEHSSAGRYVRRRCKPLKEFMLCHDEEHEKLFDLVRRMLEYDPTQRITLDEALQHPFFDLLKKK

In the case of `CN(C)CCOc1cc(-c2cn[nH]c2)ccc1NC(=O)C1COc2ccccc2O1` (centres unmarked) [Compound 5], the IC50 (ROCK-II) is reported as ~3 nM, the IC50 [1] is reported as ~3 nM and the inhibition at 3 µM (Akt3) is reported as > 50%. For the same compound, the inhibition at 3 µM (Clk1) was > 50%, the inhibition at 3 µM (Clk2) was > 50% and the inhibition at 3 µM (Clk4) was > 50%. The inhibition at 3 µM (Lats2) was > 50%, the off-target hit rate (353 kinases; 353 kinases, hits = inhibition greater than 50%) was 1.4% and the “inhibition of all other kinases of the panel” value (353 kinases; single-point, no or very low inhibition) was < 10%. It also gave an IC50 (adrenergic receptor α1a) of ~1000 nM, an IC50 (adrenergic receptor α1b) of ~1000 nM and an IC50 (adrenergic receptor α2a) of ~1000 nM. For the same compound, the “inhibition of Rho kinase in the TM tissue (p-MLC Western blot)” value [2] was “greater than 90%” and the “increase of aqueous humor outflow facility” value [3] was 70–80%.
